Assay results from patent publication US10381110B2, “Molecules” (University of Dundee, priority 2010, dated 2019).

How the values were obtained:
α1A (Alpha1A) = target: T1, α1A (Alpha1A) (Homo sapiens, UniProt P35348); experiment: Secondary radioligand binding assay (Ki)
T1 sequence (P35348 1-466): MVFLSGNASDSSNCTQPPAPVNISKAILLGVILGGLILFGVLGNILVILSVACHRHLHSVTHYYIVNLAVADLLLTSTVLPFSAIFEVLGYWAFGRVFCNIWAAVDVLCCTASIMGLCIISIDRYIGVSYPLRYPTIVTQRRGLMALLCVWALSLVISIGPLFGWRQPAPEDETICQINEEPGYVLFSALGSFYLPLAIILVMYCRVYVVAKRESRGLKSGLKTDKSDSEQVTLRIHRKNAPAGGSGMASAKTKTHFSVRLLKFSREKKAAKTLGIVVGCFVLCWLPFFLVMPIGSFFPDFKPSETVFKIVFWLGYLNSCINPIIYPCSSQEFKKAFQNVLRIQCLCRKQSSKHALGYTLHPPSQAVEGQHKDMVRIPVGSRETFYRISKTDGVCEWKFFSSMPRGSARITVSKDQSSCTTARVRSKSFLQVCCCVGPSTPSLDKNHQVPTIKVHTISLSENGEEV
Method: (§1) Radioligand is diluted to five times the assay concentration (see Table 18) in Standard Binding Buffer. Typically, the assay concentration of radioligand is a value between one half the KD and the KD of a particular radioligand at its target. 50 μl aliquots of radioligand are dispensed into the wells of a 96-well plate containing 100 μl of Standard Binding Buffer. Then, duplicate 50 μl aliquots of the test and reference compound dilutions are added.
(§2) The 250 μl reactions are incubated at room temperature and shielded from light (to prevent photolysis of light-sensitive ligands) for 1.5 hours, then harvested by rapid filtration onto Whatman GF/B glass fiber filters pre-soaked with 0.3% polyethyleneimine using a 96-well Brandel harverster. Four rapid 500 μl washes are performed with chilled Standard Binding Buffer to reduce non-specific binding. Filters are placed in 6 ml scintillation tubes and allowed to dry overnight. The next day, 4 ml of EcoScint scintillation cocktail (National Diagnostics) are added to each tube. The tubes are capped, labeled, and counted by liquid scintillation counting. […] The filter mats are dried, then scintillant is melted onto the filters and the radioactivity retained on the filters is counted in a Microbeta scintillation counter.
(§3) Raw data (dpm) representing total radioligand binding (i.e. specific+non-specific binding) are plotted as a function of the logarithm of the molar concentration of the competitor (i.e. test or reference compound).
Adrenergic Receptors: α1A, α1B, α2A, α2B, α2C, β1, β2, β3
(§4) Membrane Fraction Source: Transiently or stably transfected cell lines (e.g. HEK293, COS, CHO, NIH3T3)
The method is carried out in the manner described for the serotonin receptor assay above, except where described below. Eleven dilutions (5× assay concentration) of the test and reference (see Table 20) compounds are prepared in the appropriate buffer by serial dilution, as previously described. Radioligand is diluted to five times the assay concentration (see Table 21) in the appropriate buffer.
The 250 μl reactions are incubated at room temperature and shielded from light (to prevent photolysis of light-sensitive ligands) for 1 hour (for α1 receptors, 40 min for α2 receptors, and 1.5 hours for β receptors), then harvested by rapid filtration onto Whatman GF/B glass fiber filters pre-soaked with 0.3% polyethyleneimine using a 96-well Brandel harverster. Four rapid 500-μl washes are performed with chilled distilled water (for α1 and β receptors) or 0.1% polyethyleneimine (for α2 receptors) to reduce non-specific binding. Filters are placed in 6 ml scintillation tubes and allowed to dry overnight and the samples are treated to obtain data as described above.

dopamine D2 [1] = target: T2, dopamine D2 (Homo sapiens, UniProt P14416); experiment: Secondary radioligand binding assay (Ki)
T2 sequence (P14416 whole entry, species assumed): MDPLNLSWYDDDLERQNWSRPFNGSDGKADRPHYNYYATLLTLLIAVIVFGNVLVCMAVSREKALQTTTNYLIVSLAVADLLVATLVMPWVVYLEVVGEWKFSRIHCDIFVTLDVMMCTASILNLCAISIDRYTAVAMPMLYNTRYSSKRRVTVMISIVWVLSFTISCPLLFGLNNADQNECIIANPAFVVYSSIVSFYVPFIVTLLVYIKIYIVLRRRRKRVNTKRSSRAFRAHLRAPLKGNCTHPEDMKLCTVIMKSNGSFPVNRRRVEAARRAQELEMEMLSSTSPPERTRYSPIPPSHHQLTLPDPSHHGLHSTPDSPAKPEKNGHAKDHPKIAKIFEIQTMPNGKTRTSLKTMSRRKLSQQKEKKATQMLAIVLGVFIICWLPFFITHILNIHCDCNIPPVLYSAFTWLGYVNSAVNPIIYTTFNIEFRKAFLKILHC
Method: as §1, §2, §3
(§5) Assay Buffers: Dopamine Binding Buffer (50 mM NaCl, 50 mM HEPES-HCl, 5 mM MgCl2, 0.5 mM EDTA, pH 7.4)
as §4
(§6) The method is carried out in the manner described for the serotonin receptor assay above. Eleven dilutions (5× assay concentration) of the test and reference (see Table 19) compounds are prepared in Dopamine Binding Buffer by serial dilution, as previously described. Radioligand is diluted to five times the assay concentration (see Table 20) in Dopamine Binding Buffer.

dopamine D3 [2] = target: T3, dopamine D3 (Homo sapiens, UniProt P35462); experiment: Secondary radioligand binding assay (Ki)
T3 sequence (P35462 whole entry): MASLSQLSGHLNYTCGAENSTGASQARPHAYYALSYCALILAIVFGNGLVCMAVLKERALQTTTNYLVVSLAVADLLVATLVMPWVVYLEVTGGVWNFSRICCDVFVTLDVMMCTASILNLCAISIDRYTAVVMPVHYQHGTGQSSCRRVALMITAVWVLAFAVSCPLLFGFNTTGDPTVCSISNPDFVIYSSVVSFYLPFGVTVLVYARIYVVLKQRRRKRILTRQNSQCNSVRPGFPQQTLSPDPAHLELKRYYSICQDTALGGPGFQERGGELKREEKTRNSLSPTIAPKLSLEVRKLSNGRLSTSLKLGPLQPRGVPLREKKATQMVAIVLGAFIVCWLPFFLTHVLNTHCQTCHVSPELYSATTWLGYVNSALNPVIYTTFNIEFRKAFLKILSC
Method: as §1, §2, §3, §5, §4, §6

5-HT2B = 5-HT2B (Homo sapiens, UniProt P41595); experiment: Secondary radioligand binding assay (Ki)
Sequence of 5-HT2B (P41595 whole entry, species assumed): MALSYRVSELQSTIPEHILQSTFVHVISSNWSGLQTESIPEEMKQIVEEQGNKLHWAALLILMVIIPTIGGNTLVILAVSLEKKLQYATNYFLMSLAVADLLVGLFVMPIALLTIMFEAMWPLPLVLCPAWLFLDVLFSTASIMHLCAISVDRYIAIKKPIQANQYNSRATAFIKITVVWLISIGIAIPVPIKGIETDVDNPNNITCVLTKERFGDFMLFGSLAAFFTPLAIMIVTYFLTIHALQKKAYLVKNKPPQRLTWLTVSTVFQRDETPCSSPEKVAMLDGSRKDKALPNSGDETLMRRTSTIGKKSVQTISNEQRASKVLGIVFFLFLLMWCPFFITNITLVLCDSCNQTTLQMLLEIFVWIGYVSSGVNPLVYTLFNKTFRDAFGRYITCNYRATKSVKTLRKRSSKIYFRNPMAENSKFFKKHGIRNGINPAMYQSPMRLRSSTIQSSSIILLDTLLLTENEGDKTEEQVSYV
Method: (§7) Assay Buffer: Standard Binding Buffer (50 mM Tris-HCl, 10 mM MgCl2, 1 mM EDTA, pH 7.4)
(§8) Membrane Fraction Source: Transiently or stably transfected cell lines (e.g., HEK293, COS, CHO, NIH3T3)
as §1, §2, §3

5-HT5A = 5-HT5A (Homo sapiens, UniProt P47898); experiment: Secondary radioligand binding assay (Ki)
Sequence of 5-HT5A (P47898 whole entry, species assumed): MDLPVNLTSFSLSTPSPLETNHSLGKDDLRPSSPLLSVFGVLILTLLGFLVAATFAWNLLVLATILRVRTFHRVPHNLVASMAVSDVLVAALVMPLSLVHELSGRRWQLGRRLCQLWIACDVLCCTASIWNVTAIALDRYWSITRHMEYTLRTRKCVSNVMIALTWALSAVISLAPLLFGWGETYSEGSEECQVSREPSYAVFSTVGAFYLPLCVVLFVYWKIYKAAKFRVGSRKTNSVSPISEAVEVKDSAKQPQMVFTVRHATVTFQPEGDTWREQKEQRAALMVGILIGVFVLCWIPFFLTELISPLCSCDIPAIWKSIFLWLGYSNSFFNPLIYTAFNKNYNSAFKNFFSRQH
Method: as §7, §8, §1, §2, §3

5HT1a = target: T4, 5HT1a (Homo sapiens, UniProt P08908); experiment: Primary radioligand binding assay (NIMH PDSP); settings: primary radiobinding assay, [3H]8-OH-DPAT; further: test concentration or dose not given here
T4 sequence (P08908 1-422): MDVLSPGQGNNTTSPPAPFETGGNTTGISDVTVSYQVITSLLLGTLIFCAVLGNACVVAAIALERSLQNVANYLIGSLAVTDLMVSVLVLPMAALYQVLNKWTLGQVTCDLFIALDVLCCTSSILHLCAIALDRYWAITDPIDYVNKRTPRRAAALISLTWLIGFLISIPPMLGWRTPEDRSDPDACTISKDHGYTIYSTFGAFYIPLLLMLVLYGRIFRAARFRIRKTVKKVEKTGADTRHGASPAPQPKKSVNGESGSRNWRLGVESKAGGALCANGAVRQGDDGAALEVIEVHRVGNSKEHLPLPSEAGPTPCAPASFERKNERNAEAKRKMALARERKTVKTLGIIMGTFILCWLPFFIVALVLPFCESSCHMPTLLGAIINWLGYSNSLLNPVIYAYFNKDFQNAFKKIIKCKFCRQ

Alpha1B = target: T5, Alpha1B (Homo sapiens, UniProt P35368); experiment: Primary radioligand binding assay (NIMH PDSP); settings: primary radiobinding assay, [3H]Prazosin; further: test concentration or dose not given here
T5 sequence (P35368 1-520): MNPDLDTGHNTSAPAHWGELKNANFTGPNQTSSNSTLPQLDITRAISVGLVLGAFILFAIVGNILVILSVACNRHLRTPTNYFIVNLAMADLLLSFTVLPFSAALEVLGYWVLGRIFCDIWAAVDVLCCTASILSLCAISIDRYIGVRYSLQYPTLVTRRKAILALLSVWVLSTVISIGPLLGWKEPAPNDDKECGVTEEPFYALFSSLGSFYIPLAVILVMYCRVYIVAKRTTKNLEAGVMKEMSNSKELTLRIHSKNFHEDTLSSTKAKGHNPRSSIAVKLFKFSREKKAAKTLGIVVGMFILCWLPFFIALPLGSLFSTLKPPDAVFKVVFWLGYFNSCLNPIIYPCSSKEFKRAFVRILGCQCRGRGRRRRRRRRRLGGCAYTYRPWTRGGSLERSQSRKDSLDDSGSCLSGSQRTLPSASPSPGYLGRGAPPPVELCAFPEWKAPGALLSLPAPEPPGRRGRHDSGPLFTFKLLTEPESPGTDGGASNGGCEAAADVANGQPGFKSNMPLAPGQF

dopamine D1 = dopamine D1 (Homo sapiens, UniProt P21728); experiment: Primary radioligand binding assay (NIMH PDSP); settings: primary radiobinding assay, [3H]SCH233930; further: test concentration or dose not given here
Sequence of dopamine D1 (P21728 whole entry): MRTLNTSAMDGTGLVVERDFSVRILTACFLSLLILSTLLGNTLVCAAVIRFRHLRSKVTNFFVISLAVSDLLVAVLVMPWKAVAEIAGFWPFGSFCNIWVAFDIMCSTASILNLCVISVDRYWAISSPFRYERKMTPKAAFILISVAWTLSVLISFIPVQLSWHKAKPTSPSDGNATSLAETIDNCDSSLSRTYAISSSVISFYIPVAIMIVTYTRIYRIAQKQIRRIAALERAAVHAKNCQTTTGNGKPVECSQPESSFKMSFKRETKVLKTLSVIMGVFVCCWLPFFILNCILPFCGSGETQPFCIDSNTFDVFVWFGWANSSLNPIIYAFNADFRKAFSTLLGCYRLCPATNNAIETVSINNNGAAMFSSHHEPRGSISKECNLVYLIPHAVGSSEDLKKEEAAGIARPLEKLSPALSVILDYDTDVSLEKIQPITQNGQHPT

dopamine D2 [3] = target: T2, dopamine D2; experiment: Primary radioligand binding assay (NIMH PDSP); settings: primary radiobinding assay, [3H]N-methylspiperone; on D3 (% inh): test concentration or dose not given here; on D4 (% inh): test concentration or dose not given here
dopamine D3 [4] = target: T3, dopamine D3; experiment: Primary radioligand binding assay (NIMH PDSP); settings: primary radiobinding assay, N-methylspiperone; on D3 (% inh): test concentration or dose not given here; on D4 (% inh): test concentration or dose not given here
dopamine D4 = target: T6, dopamine D4 (Homo sapiens, UniProt P21917); experiment: Primary radioligand binding assay (NIMH PDSP); settings: primary radiobinding assay, N-methylspiperone; on D3 (% inh): test concentration or dose not given here; on D4 (% inh): test concentration or dose not given here
T6 sequence (P21917 1-419): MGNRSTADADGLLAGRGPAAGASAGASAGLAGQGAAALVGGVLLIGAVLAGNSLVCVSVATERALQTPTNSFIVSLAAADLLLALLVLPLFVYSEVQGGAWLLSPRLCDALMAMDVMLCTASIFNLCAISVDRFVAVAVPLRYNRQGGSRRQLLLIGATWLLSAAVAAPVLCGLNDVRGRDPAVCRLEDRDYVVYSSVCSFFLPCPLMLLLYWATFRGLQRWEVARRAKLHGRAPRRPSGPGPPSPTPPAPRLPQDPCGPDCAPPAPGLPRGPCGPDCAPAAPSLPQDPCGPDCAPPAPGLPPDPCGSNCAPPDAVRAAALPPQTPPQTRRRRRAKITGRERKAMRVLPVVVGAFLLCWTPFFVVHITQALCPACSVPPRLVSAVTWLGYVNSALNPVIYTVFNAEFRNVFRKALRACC

dopamine D5 = dopamine D5 (Homo sapiens, UniProt P21918); experiment: Primary radioligand binding assay (NIMH PDSP); settings: primary radiobinding assay, [3H]SCH233930; further: test concentration or dose not given here
Sequence of dopamine D5 (P21918 whole entry): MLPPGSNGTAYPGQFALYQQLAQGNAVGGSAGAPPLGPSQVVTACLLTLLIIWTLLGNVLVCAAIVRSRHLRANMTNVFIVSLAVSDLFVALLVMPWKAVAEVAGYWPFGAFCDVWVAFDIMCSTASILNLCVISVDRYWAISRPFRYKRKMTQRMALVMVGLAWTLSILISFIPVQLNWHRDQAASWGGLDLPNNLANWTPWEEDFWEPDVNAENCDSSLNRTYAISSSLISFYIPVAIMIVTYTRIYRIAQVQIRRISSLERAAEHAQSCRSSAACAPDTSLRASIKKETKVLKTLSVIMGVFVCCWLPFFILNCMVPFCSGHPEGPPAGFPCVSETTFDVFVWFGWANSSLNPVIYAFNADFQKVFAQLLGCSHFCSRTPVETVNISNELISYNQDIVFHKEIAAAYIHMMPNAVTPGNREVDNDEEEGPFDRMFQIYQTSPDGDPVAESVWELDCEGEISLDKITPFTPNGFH

With `CC1Cc2ccccc2N1C(=O)CN1CCN(Cc2ccccc2)CC1` (stereo not drawn) [STT-00185638, 2-[-4-(benzyl)-piperazin-1-yl]-1-(2-methy-2,3-dihydro-indol-1-yl)-ethanone] the Ki (α1A (Alpha1A)) was 2060 nM, the Ki (dopamine D2 [1]) was 2460 nM and the Ki (dopamine D3 [2]) was 3220 nM. For the same compound, the Ki (5-HT2B) was 879 nM, the Ki (5-HT5A) was 6770 nM and the “5ht1a (% inh)” value (5HT1a) was 64.9 % inh. The “Alpha1B (% inh)” value (Alpha1B) was 16 % inh, the “D1 (% inh)” value (dopamine D1) was 50.8 % inh and the “D2 (% inh)” value (dopamine D2 [3]) was 66.2 % inh. For the same compound, the “D3 (% inh)” value (dopamine D3 [4]) was 63.6 % inh, the “D4 (% inh)” value (dopamine D4) was 99.4 % inh and the “D5 (% inh)” value (dopamine D5) was 9.7 % inh.
